# From patent publication EP2529738A1, “Substituted terpyridines” (Max-Delbrück-Centrum für Molekulare Medizin, priority 2011, dated 2012)
# “Also recorded” adds a separate entry of the source.
# Tests used:
# full length RIIα-His = target: T1, full length RIIα-His (Homo sapiens, UniProt P13861); assay: saturation transfer difference (STD) NMR binding experiment; details: result in words; reduction in ligand peak intensity indicates binding
# T1 construct: 20 µM unlabelled PKA-RIIα FL(1-404)-His; His (C)
# T1 sequence (P13861 whole entry): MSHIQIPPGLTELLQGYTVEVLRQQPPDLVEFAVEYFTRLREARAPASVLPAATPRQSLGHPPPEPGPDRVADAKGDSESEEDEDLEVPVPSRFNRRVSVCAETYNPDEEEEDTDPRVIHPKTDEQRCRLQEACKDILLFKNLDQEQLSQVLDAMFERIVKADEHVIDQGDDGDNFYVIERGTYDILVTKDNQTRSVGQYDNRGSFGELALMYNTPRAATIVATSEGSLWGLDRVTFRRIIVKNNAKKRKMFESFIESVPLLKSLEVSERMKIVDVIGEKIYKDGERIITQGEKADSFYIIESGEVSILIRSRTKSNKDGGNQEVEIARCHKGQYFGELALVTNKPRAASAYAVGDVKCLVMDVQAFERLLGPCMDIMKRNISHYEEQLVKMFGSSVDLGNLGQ
# Procedure: (§1) The compounds were tested first in a saturation transfer difference (STD) NMR experiment. For the STD experiments with the compounds depicted in table 1 full length RIIα-His was used as the target protein. Prior to measurements of STD spectra in the presence of the target protein, the same set of experiments was performed in the absence of protein in order to confirm that no saturation of the compound signals takes place when irradiating the sample at the frequency chosen for protein irradiation. […] Table 2: Qualitative results from STD and HSQC experiments with the indicated compounds.
# Saturation transfer difference nuclear magnetic resonance (STD-NMR)
# (§2) NMR samples for STD-NMR contained 0.1 mM of the indicated compound in NMR buffer, with a final concentration of d6-DMSO of 2%. Samples were measured in presence or absence of 20 µM unlabelled PKA-RIIα FL(1-404)-His.
# STD-NMR experiments were recorded with the carrier frequency set to -1000 (around -1 ppm) for on-resonance irradiation and about 330 ppm for off-resonance irradiation. A train of 50 Gaussian-shaped pulses at 40 ms was applied, each separated by a 1-ms delay, for a total duration of 2.05 s, to achieve selective protein saturation. Spectra acquisition was done with 32 scans in absence of protein and 256 scans in presence of protein and a relaxation delay of 1.3 s. A T1ρ spin lock pulse of 40 ms was used to suppress the background protein signals. The STD spectrum was obtained from the internal subtraction of the on-resonance from the off-resonance data by phase cycling.
# D/D domain of RIIα = target: T2, D/D domain of RIIα (Homo sapiens, UniProt P13861); assay: 1H,15N-HSQC NMR binding experiment with 15N-labeled D/D domain; details: result in words; 100 µM 15N-labeled D/D domain, 300 µM compound
# T2 construct: ^15N-isotopically enriched RIIα(1-44)
# T2 sequence (P13861 1-44): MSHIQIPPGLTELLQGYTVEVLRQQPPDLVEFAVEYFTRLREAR
# Procedure: For an estimate of binding specificity, the compounds were tested in a second NMR assay for binding to the D/D domain of RIIα. The D/D domain contains the AKAP binding site of RIIα. Therefore, suitable small molecule mimetics of the RIIBD of AKAP18 must bind to this domain of the full length protein. In other words, binding to the D/D domain is a good initial test for an AKAP-like, specific interaction of the compounds with RIIα.
# For this purpose HSQC-experiments with ^15N-labeled D/D domain were employed with the compounds depicted in table 3. The results obtained correspond to the results from the STD experiments. […] In Fig. 5, HSQC-spectra of the D/D domain in presence and absence of 25b are depicted.
# ^1H,^15N-Heteronuclear Single Quantum Coherence (HSQC)-NMR)
# ^1H,^15N-HSQC-NMR experiments were carried on a 600 MHz spectrometer at 300 K.
# ^1H,^15N-correlation experiments using with ^15N-isotopically enriched RIIα(1-44) were recorded using a standard HSQC pulse program or an HMQC-SOFAST pulse program, both employing WATERGATE for solvent suppression.
# The protein concentration employed for binding studies was in the order of 0.1 mM. The concentration of compounds was 0.3 mM for compounds and 0.8 mM for peptides, respectively. Experiments were performed in NMR buffer containing 5% d6-DMSO. Each step was followed by recording of a new spectrum. The acquisition time in the direct dimension was restricted to 150 ms. A total of 256 increments was recorded in the indirect dimension. [formula]
# AKAP18α-PKA interaction = details: inhibition of AKAP18α-PKA interaction; cited from earlier work
# [1] = behaviour of the compound in the STD-NMR sample solution; assay type: physicochemical; details: 0.1 mM in NMR buffer, 2% d6-DMSO; no ligand peaks measurable by NMR
# Procedure: as §1
# In Fig. 4, the STD-spectra of a binding compound (25b) and a non-binding compound (14b) are depicted.
# as §2
Compound,binding of the compounds to RIIα in STD experiments (full length RIIα-His),change in chemical shift of D/D domain signals upon addition of compound (D/D domain of RIIα),IC50 (AKAP18α-PKA interaction),solubility in the STD-NMR sample [1]
"Cc1c(-c2nc(CCCN(Cc3ccccc3)Cc3ccccc3)cc3c2CCC3)cnc(-c2cc(CCC(=O)O)cnc2C(N)=O)c1C [25a, 3-[6-carbamoyl-5-[5-[3-[3-(dibenzylamino)propyl]-6,7-dihydro-5H-cyclopenta[c]pyridin-1-yl]-3,4-dimethyl-2-pyridyl]-3-pyridyl]propanoic acid]",reduction in ligand peak intensity,,,
"Cc1cc(-c2nc(CCCN(Cc3ccccc3)Cc3ccccc3)cc3c2CCC3)cnc1-c1cc(CCC(=O)O)cnc1C(N)=O [25b, 3-[6-carbamoyl-5-[5-[3-[3-(dibenzylamino)propyl]-6,7-dihydro-5H-cyclopenta[c]pyridin-1-yl]-3-methyl-2-pyridyl]-3-pyridyl]propanoic acid]",reduction in ligand peak intensity,change in chemical shift of D/D domain signals was observed,,
PEDAELVRLSKRLVENAVEKAVQQY (SEQ ID 01) [AKAP18δ-L314E],,,low nanomolar range,
CCOC(=O)CCc1cnc(C#N)c(-c2ncccc2C)c1 [compound 27],No binding was detected,no perturbation of chemical shifts,,
Cc1cc(-c2nc(CCCN)cc3c2CCC3)cnc1-c1cc(CCC(=O)O)cnc1C(N)=O [14b],No binding was detected,no perturbation of chemical shifts,,
Cc1cc(-c2nc(CCCNCc3ccccc3)cc3c2CCC3)cnc1-c1cc(CCC(=O)O)cnc1C(N)=O [14c],No binding was detected,no perturbation of chemical shifts,,
"CCOC(=O)CCc1cnc(C#N)c(-c2ncc(-c3nc(CCCN(Cc4ccccc4)Cc4ccccc4)cc4c3CCC4)c(C)c2C)c1 [22a, Ethyl 3-(6-cyano-5-(5-(3-(3-(dibenzylamino)propyl)-6,7-dihydro-5H-cyclopenta[c]pyridin-1-yl)-3,4-dimethylpyridin-2-yl)pyridine-3-yl)propanoate]",,,,precipitated from solution; also recorded: crystallized from the solution
